Data from patent US9889155B2, “Enhancer of anti-tumor effect of anti-cancer agent” (priority 2014, dated 2018).
≈ marks a conversion by molar mass, not a printed value. Structures can show the parent of a compound that is named as a salt.

Experiments:
[1] = system: Human colorectal cancer cells (HCT116); assay: IC50 of anticancer agents against HCT116 cells with or without sCA particles, cell count at 48 hours (Example 2); assay type: cell-based
Experimental: At 48 hours after the addition of each of the anticancer agents, the number of cells was counted, and the IC50 (concentration of 5-fluorouracil that kills 50% of the cancer cells) value was determined.

[2] = system: Human colorectal cancer cells (HCT116); assay: IC50 of 5-fluorouracil against HCT116 cells with or without sCA particles, cell count (Example 1); assay type: cell-based; details: sCA(1) particles added 24 hours before, where used
Experimental: At 24, 48, and 72 hours after the addition of 5-fluorouracil, the number of cells was counted, and IC50 (concentration of 5-fluorouracil that kills 50% of the cancer cells) values were determined.

[3] = system: human colorectal cancer cell line HT29 subcutaneous tumor; assay: Doxorubicin accumulation in HT29 subcutaneous tumors, IVIS Spectrum fluorescent imaging (Example 7); assay type: in vivo, BALB/cA nude mice; details: HT29 tumor mice; doxorubicin hydrochloride 1.5 mg/mouse via tail vein; tumors removed after 2 hours; sCA(2) particles 3 hours before, where used; FIG. 9
Experimental: At the time when the tumors reached about 10 mm in diameter, the mice were randomly divided into the two groups shown in Table 5, and each group was administered the drug. After 2 hours from the drug administration, tumors were removed from the mice, and doxorubicin hydrochloride accumulated in the tumors was detected by fluorescent imaging using the IVIS Spectrum. For doxorubicin (DOX), detection of fluorescence wavelength has been confirmed by the IVIS Spectrum (FIG. 8).

[4] = Homo sapiens, HCT-116, 48 hours after addition of anticancer agent, With sCA particles, read-out: IC50 (mean ± SD), With sCA particles
[5] = Homo sapiens, HCT-116, 48 hours after addition of anticancer agent, Without sCA particles, read-out: IC50 (mean ± SD), Without sCA particles
[6] = 48 hours after addition of anticancer agent, With sCA particles, read-out: IC50 (mean ± SD), With sCA particles
[7] = 48 hours after addition of anticancer agent, Without sCA particles, read-out: IC50 (mean ± SD), Without sCA particles

Row | IC50 [1, 4] [µM] | IC50 [1, 5] [µM] | SMILES | IC50 [1, 6] [µM] | IC50 [1, 7] [µM] | also measured
1 | 0.00917 ± 0.00042 | 0.000353 ± 7e-05 | CC(=O)O[C@@]12CO[C@@H]1C[C@H](O)[C@@]1(C)C(=O)[C@H](O)C3=C(C)[C@@H](OC(=O)[C@H](O)[C@@H](NC(=O)OC(C)(C)C)c4ccccc4)C[C@@](O)([C@@H](OC(=O)c4ccccc4)[C@H]21)C3(C)C [Docetaxel, docetaxel] |  |  | 
2 | 74.6 ± 10 | 11.7 ± 2 | O=c1[nH]cc(F)c(=O)[nH]1 [5-fluorouracil] |  |  | IC50 ([2]; HCT-116, 24 hours after addition of 5-fluorouracil, read-out: IC50 (mean ± SD), After 24 hr): 215 ± 141 mg/L (≈ 1650 µM); IC50 ([2]; HCT-116, 48 hours after addition of 5-fluorouracil, read-out: IC50 (mean ± SD), After 48 hr): 4.07 ± 0.473 mg/L (≈ 31.3 µM); IC50 ([2]; HCT-116, 72 hours after addition of 5-fluorouracil, read-out: IC50 (mean ± SD), After 72 hr): 2.64 ± 0.696 mg/L (≈ 20.3 µM)
3 |  |  | COc1cccc2c1C(=O)c1c(O)c3c(c(O)c1C2=O)C[C@@](O)(C(=O)CO)C[C@@H]3O[C@H]1C[C@H](N)[C@H](O)[C@H](C)O1 [doxorubicin hydrochloride] |  |  | doxorubicin accumulated in the tumor (fluorescent imaging) [3]: only a small amount of doxorubicin was detected in the tumor
4 |  |  | O=C1[O][Pt]2([NH][C@@H]3CCCC[C@H]3[NH]2)[O]C1=O [Oxaliplatin, oxaliplatin] | 31.3 ± 2.2 | 3.7 ± 1.1 | 
5 |  |  | N.N.[Cl][Pt][Cl] [Cisplatin, cisplatin] | 39.2 ± 2.7 | 31.3 ± 0.9 | 
